# Like-named read-outs stand apart in the source and are kept apart here.
# Experiments:
# [1] = target: human Smoothened receptor (Homo sapiens, UniProt Q99835); experiment: Smo binding assay, displacement of radio-labeled smoothened agonist, filter binding format (human); conditions: displacement of small molecule agonist of Smoothened, read-out: Human Smo bdg., IC50
# Description: A Smo binding assay was developed using radio-labeled smoothened agonist for compound competition. Table 9 lists the IC50 for displacement of a small molecule agonist of Smoothened determined in a filter binding format for the mouse and human Smoothened receptor.
# [2] = test system: Gli-luciferase activity; experiment: Reporter gene assay (RGA) in TMHh12 cells, antagonism of Gli-luciferase activity in the presence of a Smo agonist; type: cell-based
# Experimental: Activity of the compounds was evaluated using a reporter gene assay (RGA) in TMHh12 cells.
# [3] = target: mouse Smoothened receptor (Mus musculus, UniProt P56726); experiment: Smo binding assay, displacement of radio-labeled smoothened agonist, filter binding format (mouse); conditions: displacement of small molecule agonist of Smoothened, read-out: Mouse Smo bdg., IC50
# Chain of mouse Smoothened receptor (P56726 33-793): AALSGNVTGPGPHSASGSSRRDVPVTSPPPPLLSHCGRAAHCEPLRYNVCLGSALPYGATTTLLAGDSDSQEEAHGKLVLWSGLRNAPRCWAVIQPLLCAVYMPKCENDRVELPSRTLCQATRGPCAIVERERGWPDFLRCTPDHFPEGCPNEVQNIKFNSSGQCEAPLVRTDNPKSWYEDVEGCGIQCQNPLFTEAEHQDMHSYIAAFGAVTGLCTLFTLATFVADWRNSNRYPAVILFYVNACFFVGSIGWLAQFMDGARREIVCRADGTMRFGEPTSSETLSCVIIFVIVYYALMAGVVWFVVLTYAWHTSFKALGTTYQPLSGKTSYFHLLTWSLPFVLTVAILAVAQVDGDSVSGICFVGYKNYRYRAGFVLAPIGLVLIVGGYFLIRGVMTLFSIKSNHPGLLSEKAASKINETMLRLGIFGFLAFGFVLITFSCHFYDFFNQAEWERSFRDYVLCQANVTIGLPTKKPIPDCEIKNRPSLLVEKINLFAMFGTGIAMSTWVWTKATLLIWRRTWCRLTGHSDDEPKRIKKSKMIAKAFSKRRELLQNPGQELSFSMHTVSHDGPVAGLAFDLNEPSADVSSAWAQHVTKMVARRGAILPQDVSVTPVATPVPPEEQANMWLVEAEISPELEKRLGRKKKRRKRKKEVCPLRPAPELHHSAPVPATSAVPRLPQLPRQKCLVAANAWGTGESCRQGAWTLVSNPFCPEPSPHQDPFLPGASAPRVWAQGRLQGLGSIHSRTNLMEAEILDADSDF
# Description: A Smo binding assay was developed using radio-labeled smoothened agonist for compound competition.
# [4] = 25 nM small molecule Smo agonist, read-out: RGA (25 nM Smo agonist) IC50
# [5] = read-out: RGA (1 nM Smo agonist) IC50, 1 nM small molecule Smo agonist
# Chain of human Smoothened receptor (Q99835 28-787): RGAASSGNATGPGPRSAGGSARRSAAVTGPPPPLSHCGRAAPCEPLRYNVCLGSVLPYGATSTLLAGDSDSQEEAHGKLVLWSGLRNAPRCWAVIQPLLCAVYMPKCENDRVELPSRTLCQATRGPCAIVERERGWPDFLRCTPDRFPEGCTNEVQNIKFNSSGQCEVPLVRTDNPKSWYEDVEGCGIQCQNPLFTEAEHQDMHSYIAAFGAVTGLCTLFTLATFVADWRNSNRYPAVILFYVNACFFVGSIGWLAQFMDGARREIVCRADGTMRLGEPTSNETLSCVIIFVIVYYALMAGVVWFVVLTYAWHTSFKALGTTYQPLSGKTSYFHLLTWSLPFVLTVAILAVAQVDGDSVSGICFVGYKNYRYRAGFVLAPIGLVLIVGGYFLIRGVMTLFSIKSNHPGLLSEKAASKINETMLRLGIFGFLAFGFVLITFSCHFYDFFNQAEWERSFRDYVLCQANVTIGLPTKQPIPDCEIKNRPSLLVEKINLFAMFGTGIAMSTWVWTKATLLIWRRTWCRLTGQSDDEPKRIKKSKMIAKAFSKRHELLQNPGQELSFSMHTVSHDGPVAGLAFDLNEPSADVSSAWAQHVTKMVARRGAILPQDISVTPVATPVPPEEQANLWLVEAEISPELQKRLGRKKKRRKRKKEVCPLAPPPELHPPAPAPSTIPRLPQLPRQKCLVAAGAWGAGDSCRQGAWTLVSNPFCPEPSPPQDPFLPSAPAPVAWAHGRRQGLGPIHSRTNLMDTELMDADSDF
Structure (SMILES),IC50 [1] [nM],"IC50 [2, 4] [nM]","IC50 [2, 5] [nM]",IC50 [3] [nM]
CC(C)(O)c1cnc(N2CCN(c3nnc(Cc4ccccc4)c4ccccc34)CC2)cn1 [Example 150],< 100,< 100,< 100,< 100
CC(C)(O)c1cnc(N2CCN(c3nnc(Cc4ccccc4)c4ccccc34)CC2)nc1 [Example 151],< 100,100 to 1000,< 100,< 100
CC(C)(O)c1ccc(N2CCN(c3nnc(Cc4ccccc4)c4ccccc34)CC2)nn1 [Example 152],100 to 1000,100 to 1000,< 100,< 100
C[C@@H]1CN(c2nnc(Cc3ccccc3)c3ccccc23)CCN1c1ccc(C(C)(C)O)cn1 [Example 154],< 100,< 100,< 100,< 100
C[C@H]1CN(c2ccc(C(C)(C)O)cn2)CCN1c1nnc(Cc2ccccc2)c2ccccc12 [Example 155],< 100,< 100,< 100,< 100
C[C@@H]1CN(c2nnc(Cc3ccccc3)c3ccccc23)CCN1c1cnc(C(C)(C)O)cn1 [Example 156],< 100,< 100,< 100,< 100
CC(=O)c1cnc(N2CCN(c3nnc(Cc4ccccc4)c4ccccc34)C[C@H]2C)cn1 [Example 157],< 100,< 100,< 100,< 100
"CC(=O)NC(C)(C)c1ccc(N2CCN(c3nnc(Cc4ccccc4)c4ccccc34)CC2)nc1 [Example 162, N-(1-{6-[4-(4-Benzyl-phthalazin-1-yl)-piperazin-1-yl]-pyridin-3-yl}-1-methyl-ethyl)-acetamide]",< 100,< 100,< 100,< 100
"CC(C)c1cnc(N2CCN(c3nnc(Cc4ccccc4)c4ccccc34)CC2)cn1 [Example 165, 4-(4-Benzyl-phthalazin-1-yl)-5′-isopropyl-3,4,5,6-tetrahydro-2H-[1,2′]bipyrazinyl]",< 100,< 100,< 100,< 100
"CC(O)(CO)c1cnc(N2CCN(c3nnc(Cc4ccccc4)c4ccccc34)CC2)cn1 (centres unmarked) [Example 166, 2-[4-(4-Benzyl-phthalazin-1-yl)-3,4,5,6-tetrahydro-2H-[1,2′]bipyrazinyl-5′-yl]-propane-1,2-diol]",< 100,100 to 1000,< 100,< 100
"CN(C)CC(C)(O)c1cnc(N2CCN(c3nnc(Cc4ccccc4)c4ccccc34)CC2)cn1 (centres unmarked) [Example 169, 2-[4-(4-Benzyl-phthalazin-1-yl)-3,4,5,6-tetrahydro-2H-[1,2′]bipyrazinyl-5′-yl]-1-dimethylamino-propan-2-ol]",< 100,100 to 1000,< 100,< 100
"CC(O)(CN1CCC(O)CC1)c1cnc(N2CCN(c3nnc(Cc4ccccc4)c4ccccc34)CC2)cn1 (centres unmarked) [Example 170, 1-{2-[4-(4-Benzyl-phthalazin-1-yl)-3,4,5,6-tetrahydro-2H-[1,2′]bipyrazinyl-5′-yl]-2-hydroxy-propyl}-piperidin-4-ol]",100 to 1000,100 to 1000,< 100,100 to 1000
"O=C(Cc1ccc(N2CCN(c3nnc(Cc4ccccc4)c4ccccc34)CC2)nc1)N1CCCC1 [Example 171, 2-{6-[4-(4-Benzyl-phthalazin-1-yl)-piperazin-1-yl]-pyridin-3-yl}-1-pyrrolidin-1-yl-ethanone]",< 100,100 to 1000,< 100,< 100
CCOC(=O)c1ccc(N2CCN(c3nnc(Cc4ccc(Cl)cc4Cl)c4ccccc34)CC2)nc1 [Example 186],< 100,100 to 1000,100 to 1000,< 100
CCOC(=O)c1ccc(N2CCN(c3nnc(Cc4ccc(F)cc4F)c4ccccc34)[C@@H](C)C2)nc1 [Example 187],< 100,100 to 1000,< 100,< 100
CCOC(=O)c1ccc(N2CCN(c3nnc(Cc4ccccc4Cl)c4ccccc34)[C@@H](C)C2)nc1 [Example 188],< 100,100 to 1000,< 100,< 100

# Further lines, results first:
IC50 [1] [nM],"IC50 [2, 4] [nM]","IC50 [2, 5] [nM]",IC50 [3] [nM],Structure (SMILES)
100 to 1000,1000 to 10000,100 to 1000,100 to 1000,"COCC(=O)OCc1ccc(N2CCN(c3nnc(Cc4ccccc4)c4ccccc34)CC2)nc1 [Example 159, Methoxy-acetic acid 6-[4-(4-benzyl-phthalazin-1-yl)-piperazin-1-yl]-pyridin-3-ylmethyl ester]"
100 to 1000,100 to 1000,< 100,100 to 1000,"CN(C)C(=O)OCc1ccc(N2CCN(c3nnc(Cc4ccccc4)c4ccccc34)CC2)nc1 [Example 160, Dimethyl-carbamic acid 6-[4-(4-benzyl-phthalazin-1-yl)-piperazin-1-yl]-pyridin-3-ylmethyl ester]"
< 100,< 100,< 100,< 100,"COC(C)(C)c1ccc(N2CCN(c3nnc(Cc4ccccc4)c4ccccc34)CC2)nc1 [Example 161, 1-Benzyl-4-{-4-[5-(1-methoxy-1-methyl-ethyl)-pyridin-2-yl]-piperazin-1-yl}-phthalazine]"
< 100,100 to 1000,< 100,< 100,"CC(O)c1ccc(N2CCN(c3nnc(Cc4ccccc4)c4ccccc34)CC2)nc1 (centres unmarked) [Example 163, 1-{6-[4-(4-Benzyl-phthalazin-1-yl)-piperazin-1-yl]-pyridin-3-yl}-ethanol]"
< 100,< 100,< 100,< 100,"CC1(c2ccc(N3CCN(c4nnc(Cc5ccccc5)c5ccccc45)CC3)nc2)OCCO1 [Example 164, 1-Benzyl-4-(4-(5-(2-methyl-1,3-dioxolan-2-yl)pyridin-2-yl)piperazin-1-yl)phthalazine]"
< 100,100 to 1000,< 100,< 100,"CC(O)(CO)c1ccc(N2CCN(c3nnc(Cc4ccccc4)c4ccccc34)CC2)nc1 (centres unmarked) [Example 167, 2-{6-[4-(4-Benzyl-phthalazin-1-yl)-piperazin-1-yl]-pyridin-3-yl}-propane-1,2-diol]"
< 100,< 100,< 100,< 100,"CC(C)(O)Cc1ccc(N2CCN(c3nnc(Cc4ccccc4)c4ccccc34)CC2)nc1 [Example 172, 1-{6-[4-(4-Benzyl-phthalazin-1-yl)-piperazin-1-yl]-pyridin-3-yl}-2-methyl-propan-2-ol]"
< 100,100 to 1000,< 100,< 100,Cc1ccc(Cc2nnc(N3CCN(c4ccc(C#N)cn4)CC3)c3ccccc23)cc1 [Example 173]
100 to 1000,1000 to 10000,< 100,100 to 1000,N#Cc1ccc(N2CCN(c3nnc(Cc4ccccc4Cl)c4ccccc34)CC2)nc1 [Example 174]
1000 to 10000,1000 to 10000,100 to 1000,100 to 1000,COc1ccccc1Cc1nnc(N2CCN(c3ccc(C#N)cn3)CC2)c2ccccc12 [Example 175]
100 to 1000,1000 to 10000,100 to 1000,100 to 1000,N#Cc1ccc(N2CCN(c3nnc(Cc4ccc(Cl)c(Cl)c4)c4ccccc34)CC2)nc1 [Example 176]
< 100,100 to 1000,100 to 1000,< 100,N#Cc1ccc(N2CCN(c3nnc(Cc4ccc(Cl)cc4Cl)c4ccccc34)CC2)nc1 [Example 177]
100 to 1000,100 to 1000,100 to 1000,100 to 1000,N#Cc1ccc(N2CCN(c3nnc(Cc4ccc(Cl)c(C(F)(F)F)c4)c4ccccc34)CC2)nc1 [Example 178]
100 to 1000,10000 to 40000,100 to 1000,100 to 1000,COC(=O)c1ccc(Cc2nnc(N3CCN(c4ccc(C#N)cn4)CC3)c3ccccc23)cc1 [Example 179]
10000 to 40000,10000 to 40000,1000 to 10000,10000 to 40000,N#Cc1ccc(N2CCN(c3nnc(Cc4ccc(C(=O)O)cc4)c4ccccc34)CC2)nc1 [Example 180]
100 to 1000,100 to 1000,< 100,< 100,N#Cc1ccc(N2CCN(c3nnc(Cc4ccc(F)cc4)c4ccccc34)CC2)nc1 [Example 181]
100 to 1000,100 to 1000,100 to 1000,100 to 1000,N#Cc1ccc(N2CCN(c3nnc(Cc4cccc(F)c4)c4ccccc34)CC2)nc1 [Example 182]
< 100,1000 to 10000,100 to 1000,< 100,CCOC(=O)c1ccc(N2CCN(c3nnc(Cc4ccc(F)cc4)c4ccccc34)CC2)nc1 [Example 183]
< 100,100 to 1000,100 to 1000,< 100,CCOC(=O)c1ccc(N2CCN(c3nnc(Cc4ccccc4F)c4ccccc34)CC2)nc1 [Example 184]
< 100,1000 to 10000,100 to 1000,< 100,CCOC(=O)c1ccc(N2CCN(c3nnc(Cc4cccc(F)c4)c4ccccc34)CC2)nc1 [Example 185]
< 100,< 100,< 100,< 100,"CC(C)(O)c1ccc(N2CCN(c3nnc(Cc4ccc(F)cc4)c4ccccc34)CC2)nc1 [Example 191, 2-(6-{4-[4-(4-Fluoro-benzyl)-phthalazin-1-yl]-piperazin-1-yl}-pyridin-3-yl)-propan-2-ol]"
< 100,100 to 1000,< 100,< 100,CC(C)(O)c1ccc(N2CCN(c3nnc(Cc4ccccc4Cl)c4ccccc34)CC2)nc1 [Example 192]
